Literature values in US20120035233A1 (priority 2009, published 2012).
Like-named read-outs stand apart in the source and are kept apart here.

solubility (chloroform): slightly soluble | solubility (ethanol (95%)): slightly soluble | solubility (ether): very slightly soluble | solubility (methanol): freely soluble | solubility (water): very slightly soluble
SMILES: Clc1ccc(COC(Cn2ccnc2)c2ccc(Cl)cc2Cl)c(Cl)c1 (centres unmarked) [Miconazole Nitrate, 1-[2-(2,4-Dichlorophenyl)-2-[(2,4-dichlorophenyl)methoxy]ethyl]-1H-imidazole]
